Measurements from patent US9322066B2, “Predictors for cancer treatment” (priority 2011, dated 2016).

Test system: relapsed or refractory, rituximab-naive or -sensitive follicular B-cell NHL
Experiment: Progression-free survival (PFS), Vc-R vs rituximab study, by biomarker
Format: in vivo, human
From the text: Non-Hodgkin lymphoma (NHL) encompasses several unique malignant lymphoid disease entities that vary in clinical behavior, morphologic appearance, immunologic, and molecular phenotype. […] A randomized, open-label, active-controlled, multicenter, multinational, prospective study to compare the efficacy and safety of the combination of bortezomib and rituximab (Vc-R) to single-agent rituximab in subjects who have relapsed or refractory, rituximab-naive or -sensitive follicular B-cell NHL was performed.
Subjects were centrally randomized to Treatment Groups A (Vc-R) or B (rituximab) in a 1:1 ratio taking into account the following stratification factors: • Follicular Lymphoma International Prognostic Index (FLIPI) score (low [0 or 1 factor], intermediate [2 factors], high [≧3 factors]); • Prior rituximab therapy (yes, no); • Time since last dose of anti-lymphoma therapy (≦1 year, >1 year); • Region (United States/Canada, European Union, Rest of World).
The following clinical endpoints were included in the analysis within each treatment group and an overall comparison was made with the biomarker-related endpoints: Progression-free survival, defined as the interval between the date of randomization and the date of progressive disease (PD) or death, whichever is first reported in the ITT population; overall survival; overall response rate (complete response [CR]+CR unconfirmed [CRu]+partial response [PR]); overall CR rate (CR+CRu); duration of response; time to next anti-lymphoma therapy; and treatment free interval.
For single-marker association analyses and pair-wise comparisons, a log rank test and Cox proportional hazard model was utilized for assessments of PFS, TTP, and OS between the treatment groups. Kaplan-Meier curves were utilized to estimate the distribution differences between groups in the time-to-event analyses. Comparison of the response rates between the treatment groups was conducted using the Fishers exact test. Single-marker association analyses were stratified by the covariates.
For pair-wise comparison analysis, biomarker pairs were formed by combinations of two markers. A log rank test was utilized for assessments of PFS, TTP, and OS between the treatment groups in the subpopulation defined by biomarker pairs. Kaplan-Meier curves were utilized to estimate the distribution differences between groups in the time-to-event analyses. Comparison of the response rates between the treatment groups was conducted using the Fishers exact test. Methods of Analysis for the multiple biomarker comparison models can be found in section 4.6.
The stratified log rank test and Cox proportional hazard model was utilized for assessments of PFS between the treatment groups. The Kaplan-Meier method was to be used to estimate the distribution of overall PFS for each treatment group in the biomarker population, and overall; stratified by expression level, SNP, or mutation (or covariate groups as noted above). The hazard ratio and 95% confidence interval was based on a stratified Cox's proportion hazard model with treatment as the explanatory variable. Analyses were done for the population overall and by treatment group, and each of these analyses were also stratified by the following factors if sufficient sample size existed: […]

rituximab
Median PFS (Vc − R vs R) (20S % NUCLEAR STAINING 30-90 + 20S INTENSITY CYTOPLASMIC SIGNAL >=3+, Excluded): 347 days | Median PFS (Vc − R vs R) (20S % NUCLEAR STAINING 30-90 + 20S INTENSITY CYTOPLASMIC SIGNAL >=3+, Selected): 280 days | Median PFS (Vc − R vs R) (20S % NUCLEAR STAINING 30-90 + 20S INTENSITY CYTOPLASMIC SIGNAL >=3+, Total): 345 days | Median PFS (Vc-R vs R) (AGEGRP <=65 + CD68 POSITIVE FOLLICULAR 0-50, Excluded): 427 days | Median PFS (Vc-R vs R) (AGEGRP <=65 + CD68 POSITIVE FOLLICULAR 0-50, Selected): 275 days | Median PFS (Vc-R vs R) (AGEGRP <=65 + CD68 POSITIVE FOLLICULAR 0-50, Total): 346 days | Median PFS (Vc − R vs R) (AGEGRP <=65 + CD68 POSITIVE PERIFOLLICULAR 0-50, Excluded): 351 days | Median PFS (Vc − R vs R) (AGEGRP <=65 + CD68 POSITIVE PERIFOLLICULAR 0-50, Selected): 281 days | Median PFS (Vc − R vs R) (AGEGRP <=65 + CD68 POSITIVE PERIFOLLICULAR 0-50, Total): 346 days | Median PFS (Vc − R vs R) (AGEGRP <=65 + P27 % NUCLEI POSITIVE 0-70, Excluded): 348 days | Median PFS (Vc − R vs R) (AGEGRP <=65 + P27 % NUCLEI POSITIVE 0-70, Selected): 279 days | Median PFS (Vc − R vs R) (AGEGRP <=65 + P27 % NUCLEI POSITIVE 0-70, Total): 345 days | PFS median (Biomarker Negative (all subjects without the pair), N = 238): 12.5 months | PFS median (Biomarker Positive (PSMB P11A heterozygote and CD68 Low), N = 118): 9.1 months | PFS median (CD68 OVERALL POSITIVE 0-25): 10.6 mo | PFS median (CD68 OVERALL POSITIVE 26-50): 9.3 mo | PFS median (CD68 POSITIVE FOLLICULAR 0-25): 9.3 mo | Median PFS (Vc − R vs R) (CD68 POSITIVE FOLLICULAR 0-50 + CD68 POSITIVE PERIFOLLICULAR 0-50, Excluded): 351 days | Median PFS (Vc − R vs R) (CD68 POSITIVE FOLLICULAR 0-50 + CD68 POSITIVE PERIFOLLICULAR 0-50, Selected): 282 days | Median PFS (Vc − R vs R) (CD68 POSITIVE FOLLICULAR 0-50 + CD68 POSITIVE PERIFOLLICULAR 0-50, Total): 346 days | Median PFS (Vc − R vs R) (CD68 POSITIVE FOLLICULAR 0-50 + P65 % POSITIVE CYTOPLASMIC SIGNAL >90%, Excluded): 486 days | Median PFS (Vc − R vs R) (CD68 POSITIVE FOLLICULAR 0-50 + P65 % POSITIVE CYTOPLASMIC SIGNAL >90%, Selected): 279 days | Median PFS (Vc − R vs R) (CD68 POSITIVE FOLLICULAR 0-50 + P65 % POSITIVE CYTOPLASMIC SIGNAL >90%, Total): 346 days | PFS median (CD68 POSITIVE FOLLICULAR 26-50): 9.1 mo | PFS median (CD68 Pos Follic (0-50) & P11A[C/G]**, first line (P 0.0025)): 8.5 mo | PFS median (CD68 Pos Follic (0-50) & P11A[C/G]**, second line (n.s.)): 9.2 mo | PFS (CD68 high): did better on rituximab alone | Median PFS (Vc-R vs R) (Excluded: 20S % NUCLEAR STAINING 30-90 and P65 % POSITIVE CYTOPLASMIC SIGNAL >90%): 419 days | Median PFS (Vc-R vs R) (Excluded: AGEGRP <=65 and CD68 OVERALL POSITIVE 0-50): 351 days | Median PFS (Vc-R vs R) (Excluded: AGEGRP <=65 and P65 % POSITIVE CYTOPLASMIC SIGNAL >90%): 414 days | Median PFS (Vc-R vs R) (Excluded: CD68 OVERALL POSITIVE 0-50 and P65 % POSITIVE C[…] >90%): 375 days | Median PFS (Vc-R vs R) (Excluded: FLIPI High and P65 % POSITIVE CYTOPLASMIC SIGNAL >90%): 378 days | Median PFS (Vc-R vs R) (Excluded: PRITUX NO and P65 % NUCLEAR STAINING 0): 346 days | Median PFS (Vc-R vs R) (Excluded: PSMB1/P11A C/G and ANNARBOR >=III): 375 days | Median PFS (Vc-R vs R) (Excluded: PSMB1/P11A C/G and P65 % NUCLEAR STAINING 0): 346 days | Median PFS (Vc − R vs R) (FLIPI High + P27 % NUCLEI POSITIVE 0-70, Excluded): 351 days | Median PFS (Vc − R vs R) (FLIPI High + P27 % NUCLEI POSITIVE 0-70, Selected): 212 days | Median PFS (Vc − R vs R) (FLIPI High + P27 % NUCLEI POSITIVE 0-70, Total): 345 days | PFS median (HI Tumor BD NO & CD68 OVERALL POSITIVE: 0-50): 16 mo | PFS median (HI Tumor BD NO & CD68 POSITIVE FOLLICULAR: 0-50): 13.8 mo | PFS median (P65 Cytoplasmic signal >90% & 1 prior treatment*, first line (P 0.0132)): 10.6 mo | PFS median (P65 Cytoplasmic signal >90% & 1 prior treatment*, second line (n.s.)): 8.9 mo | PFS median (P65 INTENSITY CYTOPLASMIC SIGNAL <=1+): 9.3 mo | PFS median (PSMB1/P11A C/G): 9.3 mo | PFS median (PSMB1/P11A C/G & 20S % POSITIVE CYTOPLASMIC SIGNAL: >90): 9.5 mo | PFS median (PSMB1/P11A C/G & Age group: <=65): 9.2 mo | PFS median (PSMB1/P11A C/G & CD68 POSITIVE FOLLICULAR: 0-50): 9.1 mo | PFS median (PSMB1/P11A C/G & CD68 POSITIVE PERIFOLLICULAR: >50): 9.2 mo | PFS median (PSMB1/P11A C/G & PSMB5/R24C C/T): 7.8 mo | PFS median (PSMB1/P11A C/G & Time since last Rx: >1 year): 10.7 mo | Median PFS (Vc-R vs R) (PSMB1/P11A C/G + 20S % NUCLEAR STAINING 30-90, Excluded): 346 days | Median PFS (Vc-R vs R) (PSMB1/P11A C/G + 20S % NUCLEAR STAINING 30-90, Selected): 275 days | Median PFS (Vc-R vs R) (PSMB1/P11A C/G + 20S % NUCLEAR STAINING 30-90, Total): 345 days | Median PFS (Vc-R vs R) (PSMB1/P11A C/G + 20S INTENSITY CYTOPLASMIC SIGNAL <=2+, Excluded): 345 days | Median PFS (Vc-R vs R) (PSMB1/P11A C/G + 20S INTENSITY CYTOPLASMIC SIGNAL <=2+, Selected): 278 days | Median PFS (Vc-R vs R) (PSMB1/P11A C/G + 20S INTENSITY CYTOPLASMIC SIGNAL <=2+, Total): 345 days | Median PFS (Vc-R vs R) (PSMB1/P11A C/G + AGEGRP <=65, Excluded): 348 days | Median PFS (Vc-R vs R) (PSMB1/P11A C/G + AGEGRP <=65, Selected): 279 days | Median PFS (Vc-R vs R) (PSMB1/P11A C/G + AGEGRP <=65, Total): 345 days | Median PFS (Vc − R vs R) (PSMB1/P11A C/G + CD68 OVERALL POSITIVE 0-50, Excluded): 348 days | Median PFS (Vc − R vs R) (PSMB1/P11A C/G + CD68 OVERALL POSITIVE 0-50, Selected): 278 days | Median PFS (Vc − R vs R) (PSMB1/P11A C/G + CD68 OVERALL POSITIVE 0-50, Total): 345 days | Median PFS (Vc-R vs R) (PSMB1/P11A C/G + P27 % NUCLEI POSITIVE 0-70, Excluded): 348 days | Median PFS (Vc-R vs R) (PSMB1/P11A C/G + P27 % NUCLEI POSITIVE 0-70, Selected): 277 days | Median PFS (Vc-R vs R) (PSMB1/P11A C/G + P27 % NUCLEI POSITIVE 0-70, Total): 338 days | Median PFS (Vc-R vs R) (PSMB1/P11A C/G + P27 SIGNAL INTENSITY >=2+, Excluded): 346 days | Median PFS (Vc-R vs R) (PSMB1/P11A C/G + P27 SIGNAL INTENSITY >=2+, Selected): 280 days | Median PFS (Vc-R vs R) (PSMB1/P11A C/G + P27 SIGNAL INTENSITY >=2+, Total): 338 days
